Results as given in patent US20040038855A1 (priority 1999, published 2004).
Counter-ions that a name gives are not always drawn. Like-named read-outs stand apart in the source and are kept apart here.

What was measured:
human NPY1 receptor = biological target: T1, human NPY1 receptor (Homo sapiens, UniProt P25929); assay: Binding affinity at the human NPY1 receptor
T1 construct: expressed in transfected cells
T1 sequence (P25929 1-384): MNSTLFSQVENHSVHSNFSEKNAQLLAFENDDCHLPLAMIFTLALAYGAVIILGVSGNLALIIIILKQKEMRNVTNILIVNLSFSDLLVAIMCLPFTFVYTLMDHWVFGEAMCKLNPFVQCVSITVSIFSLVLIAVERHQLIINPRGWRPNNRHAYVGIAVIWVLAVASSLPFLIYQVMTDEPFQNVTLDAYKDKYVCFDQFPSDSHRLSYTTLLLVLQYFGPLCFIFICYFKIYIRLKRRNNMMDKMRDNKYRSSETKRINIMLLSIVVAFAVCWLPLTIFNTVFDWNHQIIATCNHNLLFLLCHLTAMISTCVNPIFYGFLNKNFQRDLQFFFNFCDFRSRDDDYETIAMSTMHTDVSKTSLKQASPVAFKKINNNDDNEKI
Excerpt: (§1) The design of such compounds can be optimized by determining their binding affinity at the recombinant MCH1, NPY1, NPY2, Gal1, Gal2, Gal3, and 5HT2C receptors. The methods to obtain the cDNA of the receptor, express said receptors in heterologous systems, and carry out assays to determine binding affinity are described in the following publications: human NPY1 (Larhammar et al., 1992), human NPY5 (U.S. Pat. No. 5,602,024, the disclosure of which is hereby incorporated by reference in its entirety into this application), human Gall (Habert-Ortoli et al., 1994), human Gal2 (Smith et al., 1997), human Gal3 (Smith et al., 1998), and rat 5HT2C (Julius et al., 1988). Additionally, the compounds would optimally not bind at the following receptors due to possible side effects: human H1 histamine and human H2 histamine receptors; human alpha-1A adrenergic, human alpha-1D adrenergic, human alpha-2A adrenergic, human alpha-2B adrenergic, and human alpha-2C adrenergic receptors; human dopamine D1, D2, D3, D4, and D5 receptors; the β-adrenoceptor; and the human 5HT1A, human 5HT1B, human 5HT1D, human 5HT1E, human 5HT1F, human 5HT2A, rat 5HT2C, human 5HT4, human 5HT6, and human 5HT7 receptors.

human GALR3 receptor = biological target: T2, human GALR3 receptor (Homo sapiens, UniProt O60755); assay: Binding affinity at the human GALR3 receptor
T2 construct: expressed in transfected cells
T2 sequence (O60755 1-368): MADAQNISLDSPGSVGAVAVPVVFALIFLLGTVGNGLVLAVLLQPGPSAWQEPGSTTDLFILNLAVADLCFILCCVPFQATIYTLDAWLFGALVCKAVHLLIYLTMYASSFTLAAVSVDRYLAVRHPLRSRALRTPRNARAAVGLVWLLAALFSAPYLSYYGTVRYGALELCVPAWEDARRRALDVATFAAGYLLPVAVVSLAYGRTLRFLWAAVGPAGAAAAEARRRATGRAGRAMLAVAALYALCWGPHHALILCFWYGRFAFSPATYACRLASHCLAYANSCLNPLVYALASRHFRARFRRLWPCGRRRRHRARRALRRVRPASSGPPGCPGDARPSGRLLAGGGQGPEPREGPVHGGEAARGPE

human NPY5 receptor = biological target: T3, human NPY5 receptor (Homo sapiens, UniProt Q15761); assay: Binding affinity at the human NPY5 receptor
T3 construct: expressed in transfected cells
T3 sequence (Q15761 1-445): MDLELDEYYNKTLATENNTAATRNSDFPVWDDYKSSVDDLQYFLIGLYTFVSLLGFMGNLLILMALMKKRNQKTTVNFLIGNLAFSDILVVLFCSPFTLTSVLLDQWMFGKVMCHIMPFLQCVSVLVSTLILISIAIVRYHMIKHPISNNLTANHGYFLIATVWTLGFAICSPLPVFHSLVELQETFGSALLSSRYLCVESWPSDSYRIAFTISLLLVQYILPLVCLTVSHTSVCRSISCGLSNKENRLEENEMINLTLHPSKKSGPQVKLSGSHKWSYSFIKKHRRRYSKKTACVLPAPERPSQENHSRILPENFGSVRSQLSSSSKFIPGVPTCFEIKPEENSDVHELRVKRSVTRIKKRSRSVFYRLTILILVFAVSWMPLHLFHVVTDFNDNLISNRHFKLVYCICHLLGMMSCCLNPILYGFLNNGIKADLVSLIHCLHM
Excerpt: as §1

human 5HT1A receptor = biological target: T4, human 5HT1A receptor (Homo sapiens, UniProt P08908); assay: Binding affinity at the human 5HT1A receptor (3H8OHDPAT); settings: Table 3e; read-out: h5HT1A Ki
T4 construct: The cDNA corresponding to the 5HT1A receptor open reading frames and variable noncoding 5′ and 3′regions; expressed in transfected cells; host or cells: COS7 cells, transient, DEAE-dextran, vector pCEXV3
T4 sequence (P08908 1-422): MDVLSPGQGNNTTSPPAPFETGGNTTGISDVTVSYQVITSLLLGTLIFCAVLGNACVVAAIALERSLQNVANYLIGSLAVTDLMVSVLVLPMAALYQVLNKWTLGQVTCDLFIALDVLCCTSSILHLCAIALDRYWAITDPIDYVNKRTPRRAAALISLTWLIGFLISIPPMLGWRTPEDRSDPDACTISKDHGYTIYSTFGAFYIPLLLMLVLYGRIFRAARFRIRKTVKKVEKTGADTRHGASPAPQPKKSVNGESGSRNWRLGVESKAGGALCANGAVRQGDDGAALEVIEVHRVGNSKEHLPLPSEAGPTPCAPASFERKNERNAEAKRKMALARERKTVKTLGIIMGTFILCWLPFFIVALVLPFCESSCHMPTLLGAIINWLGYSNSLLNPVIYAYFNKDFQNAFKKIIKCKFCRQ
Procedure: 5HT1A Receptor: The cDNA corresponding to the 5HT1A receptor open reading frames and variable noncoding 5′ and 3′regions, was cloned into the eukaryotic expression vector pCEXV3. These constructs were transfected transiently into COS7 cells by the DEAEdextran method (Cullen, 1987), and harvested after 72 hours. Radioligand binding assays were performed as described above for the 5HT2A receptor, except that ^3H8OHDPAT was used as the radioligand and nonspecific binding was determined by the addition of 10 μM mianserin.

Row | Molecule | Ki (human NPY1 receptor; Table 3a, read-out: hMPY1 Ki) | Ki (human NPY1 receptor; Table 3b, read-out: hNPY1 Ki) | Ki (human GALR3 receptor; Table 3a, read-out: hGALR3 Ki) | Ki (human GALR3 receptor; Table 3b, read-out: hGALR3 Ki) | Ki (human NPY5 receptor; Table 3a, read-out: hNPY5 Ki) | Ki (human NPY5 receptor; Table 3b, read-out: hNPY5 Ki) | Ki (human 5HT1A receptor) | Ki (human NPY1 receptor) | Ki (human NPY1 receptor; read-out: hNPY1 Ki, Table 3b) | Ki (human GALR3 receptor) | Ki (human GALR3 receptor; read-out: hGALR3 Ki, Table 3b) | Ki (human NPY5 receptor) | Ki (human NPY5 receptor; read-out: hNPY5 Ki, Table 3b) | Ki (human NPY1 receptor; read-out: hMPY1 Ki, Table 3a)
1 | 2-(3,4-DIFLUOROPHENYL)4,5-DIHYDROIMIDAZOLE-1-CARBOXYLIC ACID {3-[4-PHENYL-4-(4-BROMO-5-METHYLTHIOPNEN-2-YL)]-PROPYL}-AMIDE [Example 19] | > 50 µM | > 50 µM | > 50 µM | > 50 µM | > 50 µM | > 50 µM | 7.94 µM |  |  |  |  |  |  | 
2 | COC(=O)C1=C(C)NC(=O)N(C(=O)NCCCN2CCC3(CC2)OCc2ccccc23)C1c1ccc2nonc2c1 (single isomer, unassigned) [Example 18, HYDROCHLORIDE] |  |  |  |  |  |  | 1.24 µM | > 50 µM | > 50 µM | > 50 µM | > 50 µM | > 50 µM | > 50 µM | 
3 | CCC1=C(C(=O)O)C(c2ccc(F)c(F)c2)N(C(=O)NCCCN2CCC3(CC2)OCc2ccccc23)C(=O)N1 (single isomer, unassigned; (+)) [Example 4, (+)-1,2,3,6-TETRAHYDRO-1-1N-[4-(BENZO-4′,5′(H)FURAN)PIPERIDIN-1-YL]PROPYL}-CARBOXAMIDO-4-ETHYL-6-(3,4-DIFLUOROPHENYL)-2-OXO-PYRIMIDINE-5 CARBOXYLIC ACID HYDROCHLORIDE] | > 50 µM | > 50 µM | > 50 µM | > 50 µM | > 50 µM | > 50 µM |  |  |  |  |  |  |  | 
4 | COCC1=C(C(=O)OC)C(c2ccc(F)c(F)c2)N(C(=O)NCCCN2CCC(c3cccc(NC(C)=O)c3)CC2)C(=O)N1 (single isomer, unassigned; (-)) [Example 1, (−)-1,2,3,6-TETRAHYDRO-1-{N-[4-(3,-ACETAMIDO)-PHENYLPIPERIDIN-1-YL]PROPYL}CARBOXAMIDO-4-METHOXYMETHYL-6-(3,4-DIFLUORO-PHENYL)-2-OXOPYRIMIDINE-5-CARBOXYLIC ACID METHYL ESTER] | > 50 µM | > 50 µM | > 50 µM | > 50 µM | > 50 µM | > 50 µM |  |  |  |  |  |  |  | 
5 | CCCCN(CCCC)c1ccc(CN2CCC(CNC(=O)N3C(=O)NC(C)=C(C(=O)OC)C3c3ccc4nonc4c3)CC2)cc1 (stereo not drawn) [Example 6] | 6.67 µM | 6.67 µM | 21.1 µM | 21.1 µM | 4.74 µM | 4.74 µM |  |  |  |  |  |  |  | 
6 | COCC1=C(C(=O)OC)[C@H](c2ccc(F)c(F)c2)N(C(=O)NCCCN2CCC(c3cccc(NC(C)=O)c3)CC2)C(=O)N1 [Example 10, (+)-1,2,3,6-TETRAHYDRO-1-{N-[4-(3,-ACETAMIDO)-PHENYLPIPERIDIN-1-YL]PROPYL}CARBOXAMIDO-4-METHOXYMETHYL-6-(3,4-DIFLUORO-PHENYL)-2-OXOPYRIMIDINE-5-CARBOXYLIC ACID METHYL ESTER] | > 50 µM | > 50 µM | > 50 µM | > 50 µM | > 50 µM | > 50 µM |  |  |  |  |  |  |  | 
7 | CCCCN(CCCC)c1ccc(CNC[C@H]2CC[C@H](NC(=O)c3cccc4ccccc34)CC2)cc1 [Example 13, N1-[4-([4-(DIBUTYLAMINO)BENZYL]AMINOMETHYL)CYCLOHEXYL]-1-NAPHTH-AMIDE] | 9.6 µM | 9.6 µM | 5.98 µM | 5.98 µM | > 50 µM | > 50 µM |  |  |  |  |  |  |  | 
8 | COC(=O)C1=C(C)NC(=O)N(C(=O)NCCCN2CCC3(CC2)OCc2ccccc23)C1c1ccc(F)c(F)c1 (stereo not drawn) [Example 20, 4-(3,4-DIFLUORPHENYL)-6-METHYL-2-OXO-3-{[3-(4-SPIRO[ISOBENZOFURAN-1(3H),4′-PIPERIDINE]PROPYL}-1,2,3,4-TETRAHYDROPYRIMIDINE-5-CARBOXYLIC ACID METHYL ESTER] |  |  |  |  |  |  | 2.19 µM | 27.1 µM |  | > 50 µM | > 50 µM | > 50 µM | > 50 µM | 27.1 µM
9 | O=C(CCCN1CCC(O)(c2ccc(Cl)cc2)CC1)c1ccc(Cl)cc1 [Example 29] |  |  |  |  |  |  |  | > 50 µM | > 50 µM | > 50 µM | > 50 µM | 46.1 µM | 46.1 µM | 
